Source: PubChem BioAssay (NCI)
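Values below derive from 48-hour exposures of cells grown in 96-well plates, with endpoints linearly interpolated between the two concentrations bracketing the appropriate inhibition level. At the GI50, growth is halved. TGI: total growth inhibition.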

Assays:
Experiment in all cases: growth of human tumour cells (NCI), 48 h
HCT-15 colon = test system: HCT-15 colon
SW-620 colon = test system: SW-620 colon
SF-539 CNS = test system: SF-539 CNS
NCI-H522 lung = test system: NCI-H522 lung
OVCAR-8 ovarian = test system: OVCAR-8 ovarian
LOX IMVI melanoma = test system: LOX IMVI melanoma
UACC-257 melanoma = test system: UACC-257 melanoma
K-562 leukemia = test system: K-562 leukemia
CCRF-CEM leukemia = test system: CCRF-CEM leukemia
NCI/ADR-RES ovarian = test system: NCI/ADR-RES ovarian

SMILES	TGI (HCT-15 colon) [µM]	TGI (SW-620 colon) [µM]	TGI (SF-539 CNS) [µM]	TGI (NCI-H522 lung) [µM]	TGI (OVCAR-8 ovarian) [µM]	TGI (LOX IMVI melanoma) [µM]	TGI (UACC-257 melanoma) [µM]	TGI (K-562 leukemia) [µM]	TGI (CCRF-CEM leukemia) [µM]	TGI (NCI/ADR-RES ovarian) [µM]	GI50 (HCT-15 colon) [µM]	GI50 (SW-620 colon) [µM]	GI50 (SF-539 CNS) [µM]	GI50 (NCI-H522 lung) [µM]	GI50 (OVCAR-8 ovarian) [µM]	GI50 (NCI/ADR-RES ovarian) [µM]	GI50 (LOX IMVI melanoma) [µM]	GI50 (UACC-257 melanoma) [µM]	GI50 (CCRF-CEM leukemia) [µM]
COc1ccc(OC(C(=O)O)C(C)C)c2c1CCCC2=O (centres undefined)	> 100	> 100	> 100	> 100	> 100	> 100	> 100	> 100	> 100										
Cc1c(C(=O)/C=C/C=C/c2ccccc2)[n+](=O)c2ccccc2n1[O-]	36.9	> 100	> 100	32	> 100	> 100	84.6	> 100	> 100										
O=[N+]([O-])c1cccc(-c2nc(-c3ccccc3)c(-c3ccccc3)[nH]2)c1		> 100	> 100	> 100	> 100	> 100	> 100	> 100	> 100	> 100									
C#CCNC(=O)NCCCCC(NC(=O)OCc1ccccc1)C(=O)OCc1ccccc1 (centres undefined)	> 100	> 100	> 100	54	> 100	> 82.2	> 100	> 100	41.3										
O=c1cccccc1NCCCCCCCNc1cccccc1=O	> 100	> 100	> 100	55.2	> 100	> 100	45.7	> 100	67.2										
O=C(C#Cc1ccccc1)N1c2ccccc2CC1c1c[nH]c2ccccc12 (centres undefined)	24.9	30.3	31.1	24.1	27.5	19.7	42	49	32										
Cl/C(N=Nc1ccccc1)=N/Nc1ccccc1		> 100	> 100	> 100	> 100	> 100	> 100	> 100	> 100										
NNc1cnn(-c2ccccc2)c(=O)c1Cl	> 100	> 100	> 100	> 100	> 100	> 100	> 100	> 100	> 100										
N#C/C(=C\c1cccc(O)c1O)C(N)=O	> 100	> 100	> 100	58.4	> 100		> 100	> 100	45.3										
CNc1ccc2ncccc2c1[N+](=O)[O-]	> 100	> 100	> 100		> 100	> 100	> 100	> 100	> 100										
CCCn1cnc2c(SCC(=O)O)nc(N)nc21	> 100	> 100		> 100	> 100	> 100	> 100	> 100	> 100	> 100									
O=C(Nc1ccc(F)cc1F)c1cc(Cl)ccc1O	18	18.7	9.9	10.8	13.3	12.6	2.68		18.1	13.3	1.54	2.61	1.01	0.974	2.38	2.52	1.73	0.397	3.04
